Source: patent publication US7741244B2, “Fungicide compositions” (priority 2002, dated 2010)

Key:
[1] = tested on: Botrytis cinerea; experiment: PDA plate inhibition, caprylic acid and organic acids (Example 13); type: cell-based; conditions: PDA plates
[2] = tested on: White mold; experiment: as above; type: cell-based; conditions: PDA plates
[3] = tested on: Botrytis cinerea; experiment: Inhibition of fungal infections on fresh raspberries (Example 9); type: in vivo; conditions: raspberries (Heritage), 60 s dip
[4] = tested on: Septoria; conditions: PDA plates, control plate = 100%
[5] = tested on: Late blight; type: cell-based; conditions: PDA plates; day 2 after inoculum; control plate = 100%

O=C(O)CCC(=O)O [0.010% succinic acid, succinic acid]
Inhibition (%) of Botrytis cinerea [1]: 0% | Inhibition (%) of white mold [2]: 0%

O=C(O)CC(O)(CC(=O)O)C(=O)O [0.010% citric acid, citric acid]
Inhibition (%) of Botrytis cinerea [1]: 0% | Inhibition (%) of white mold [2]: 0%

O=C(O)C(O)C(O)C(=O)O (stereo not shown) [0.75% tartaric acid, tartaric acid]
Infected berries (% of total) Day 2 ([3]; day 2): 31% | Infected berries (% of total) Day 3 ([3]; day 3): 58% | Infected berries (% of total) Day 4 ([3]; day 4): 86% | Infected berries (% of total) Day 6 ([3]; day 6): 92% | Infected berries (% of total) Day 8 ([3]; day 8): 92% | Infected berries (% of total) Day 10 ([3]; day 10): 92% | Infected berries (% of total) Day 12 ([3]; day 12): 92%

O=C(O)CO [glycolic acid]
Measurement of fungal growth, Septoria Day 2 ([4]; day 2 after inoculum): 80% | Measurement of fungal growth, Septoria Day 3 ([4]; day 3 after inoculum): 90% | Measurement of fungal growth, Late blight Day 2 [5]: 79% | Inhibition (%) of Botrytis cinerea [1]: 0% | Inhibition (%) of white mold [2]: 0%
